System: patients scheduled for carotid surgery
Assay: Randomized study of xenon versus sevoflurane for maintaining general anesthesia during carotid endarterectomy with clamping of the internal carotid artery
Assay type: in vivo, human being
Conditions: for average radial-carotid pressure gradient (PG) between systemic SAP and arterial pressure in the clamped carotid artery: during clamping of the internal carotid artery, group X (xenon 60%±5%, at least 30% oxygen) compared with group S (sevoflurane), 12 patients per group
Procedure: The study was carried out in 24 patients scheduled for carotid surgery, comprising men and women. The choice of treatment of the patients is made randomly (randomization): • either using a routine anesthetic agent, namely sevoflurane: group S of 12 patients, • or by inhalation of xenon at 60%±5% in a mixture with at least 30% of oxygen: group X of 12 patients (% by volume). Anesthesia was induced identically in the 2 groups using intravenous products, namely propofol (target 1.5 μg/ml) and a morphine compound, remifentanil (target 4 ng/ml), double TCI (Target Controlled Infusion). The main assessment criterion is the pressure gradient (PG) between the systolic arterial pressure (SAP) measured at the level of a radial arterial catheter contralateral to the surgery and the arterial pressure in the clamped carotid artery. This pressure is obtained by means of a Fogarty catheter, which also enables clamping of the internal carotid artery by inflation of the balloon, connected to a pressure sensor. The continuous recording and the calculation of the PG are carried out live by a BiopAC system. This method makes it possible to obtain a measurement of the PG throughout the entire duration of the clamping of the internal carotid artery. The statistical analyses are carried out with R Project for Statistician Computing (www.r-project.org).

SMILES | consumption of vasopressor products for maintaining the systemic arterial pressure (group S compared with group X, p<0.001) | average radial-carotid pressure gradient (PG) between systemic SAP and arterial pressure in the clamped carotid artery (p<0.001) | average radial-carotid pressure gradient (PG) between systemic SAP and arterial pressure in the clamped carotid artery (p<0.001, listed as group X) | hemodynamic parameters during maintenance of anesthesia (maintenance of anesthesia with xenon) | systemic systolic arterial pressure values (maintenance of anesthesia with xenon, compared with the usual inhaled or intravenous (IV) anesthetic agents)
FCOC(C(F)(F)F)C(F)(F)F [sevoflurane, reference compound] | significantly higher | – | – | – | –
[Xe] [xenon] | – | reduce the pressure gradient (PG) | significantly lower | stable | higher
